# Measured values from patent US20240358984A1, “Ultrasound delivery” (ACT Therapeutics Ltd, priority 2021, published 2024).
# Test system: subcutaneous prostate cancer model (PC3)
# Test: Tumour specific uptake of Evans Blue after ACT
# Type: in vivo, mice
# Conditions: Enhancement 0.5 MHz, MI 0 to 0.4, 30 min after treatment
# Experimental: To investigate the effect of MI variance of the US Enhancement field, tumour specific uptake of Evans Blue (EB, fluorescent dye) has been investigated in a subcutaneous prostate cancer model (PC3) in mice. Five groups with Enhancement insonation MIs of 0, 0.1, 0.2, 0.3 and 0.4 were investigated (N=3 animals per group). […] 30 min after treatment, the tumors were excised and the amount of EB was measured by spectrophotometry at 620 nm.
structure (smiles),measurement,value
Cc1cc(-c2ccc(/N=N/c3ccc4c(S(=O)(=O)O)cc(S(=O)(=O)O)c(N)c4c3O)c(C)c2)ccc1/N=N/c1ccc2c(S(=O)(=O)O)cc(S(=O)(=O)O)c(N)c2c1O [Evans Blue],tumour tissue uptake as function of Enhancement MI,"increases from no US (MI=0) to MI=0.1 and further with MI=0.2, but then drops again with MI=0.3 and further with M=0.4"
